Assay results: patent publication US20090305995A1, “AGONISTS AND ANTAGONISTS OF THE SOMATOSTATIN RECEPTOR” (Novartis AG, priority 2004, published 2009)
Converted amounts (≈) assume the structure as drawn. Where two headings read alike, the source gives them in different places.

Legend:
hsst4 receptor = biological target: T1, hsst4 receptor (Homo sapiens, UniProt P31391); assay: radioligand-binding displacement assay ([125I]LTT-SRIF28), receptor expressed in CCL39 cells; details: for Kd: hsst4, [125I]LTT-SRIF28 displacement
T1 construct: expressed in transfected cells; host or cells: Chinese hamster lung fibroblast (CCL39) cells
Description: The generated peptides are tested for their affinity to bind to human SRIF receptors expressed in Chinese hamster lung fibroblast (CCL39) cells. This is achieved in radioligand-binding assays, a displacement experiment in which the concentration of a substance is measured which is necessary for the replacement of 50% of a specifically bound radioligand ([^125I]LTT-SRIF28). Specific binding is measured as the total binding of receptor-specific radioligand minus the amount of radioligand bound in presence of unmarked SRIF-14 (100 nM, nonspecific binding).

[1] = high throughput solubility (HT-Solubility); format: physicochemical; details: for water solubility (in words): see FIG. 10
[2] = high throughput permeability (HT-Permeability, log Pe); format: physicochemical; details: PAMPA, Pe in cm/s
[3] = HT-logP o/w, high throughput assay based on artificial liquid membrane permeability; format: physicochemical
From the text: To be absorbed and transported by passive diffusion, drugs must be sufficiently lipophilic to penetrate the lipid cores of membranes, but not too lipophilic that they get retained and accumulated there. The lipophilictity of a compound is expressed by the octanol/water partition coefficient or distribution coefficient. A first approximation of substance polarity can either be given by computer assisted calculations giving Clog P values or by measurement of the partition coefficients in high-throughput assays (HT-log P o/w) (Faller et al., 2004; Wohnsland et al., 2001).
Octanol/water partition coefficients are measured in a high throughput assay based on artificial liquid membrane permeability. […] Still many approaches to calculate log P values are limited due to a lack of parameterization of certain fragments and fail with increasing molecular weight which implicates higher structural complexity. Similar problems and failures are observed in chromatographic determinations of log P: Peptides might undergo structural changes driven by interactions with the stationary phase. Decisive interactions between the stationary phase and the defolded analytes are therefore also based on the linear peptide sequence. For this reason measured HT-log P o/w values based on chromatographic assays employing stationary phases may lead to erroneous results.

[4] = pH 1, pH 1.0, read-out: HT-Solubility pH 1.0
[5] = pH 6.8, pH 6.8, read-out: HT-Solubility pH 6.8
[6] = pH 4, pH 4.0, read-out: HT-Permeability logPe pH 4.0 (converted)
[7] = pH 6.8, pH 6.8, read-out: HT-Permeability logPe pH 6.8 (converted)
[8] = pH 8, pH 8.0, read-out: HT-Permeability logPe pH 8.0 (converted)
[9] = octanol/water, read-out: HT LogP ohw

T1 sequence (P31391 whole entry): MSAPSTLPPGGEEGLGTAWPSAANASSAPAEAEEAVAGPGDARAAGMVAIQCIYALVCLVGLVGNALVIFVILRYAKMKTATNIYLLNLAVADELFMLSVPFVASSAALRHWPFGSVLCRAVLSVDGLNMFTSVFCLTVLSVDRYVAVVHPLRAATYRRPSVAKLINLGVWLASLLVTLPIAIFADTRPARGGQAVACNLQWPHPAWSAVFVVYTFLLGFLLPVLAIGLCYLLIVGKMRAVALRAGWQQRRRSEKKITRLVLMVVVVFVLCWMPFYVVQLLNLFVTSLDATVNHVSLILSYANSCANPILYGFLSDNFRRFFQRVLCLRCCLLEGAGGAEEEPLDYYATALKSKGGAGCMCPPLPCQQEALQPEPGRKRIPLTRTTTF

Kd (hsst4 receptor) [nM] | solubility [1, 4] [µg/mL] | solubility [1, 5] [µg/mL] | water solubility (in words) [1] | Papp [2, 6] [×10⁻⁶ cm/s] | Papp [2, 7] [×10⁻⁶ cm/s] | Papp [2, 8] [×10⁻⁶ cm/s] | logP [3, 9] | binding affinity to hsst4 (in words) (hsst4 receptor) | SMILES | solubility ([1]; pH 1.0, read-out: HT-Solubility pH 1.0) [µg/mL] | solubility ([1]; pH 6.8, read-out: HT-Solubility pH 6.8) [µg/mL] | Papp ([2]; pH 4.0, read-out: HT-Permeability logPe pH 4.0 (converted)) [×10⁻⁶ cm/s] | logP ([3]; octanol/water; read-out: HT LogP ohw)
57 | 135 (≈ 200 µM) | 135 (≈ 200 µM) | highest solubility values | 12.6 | 2.51 | 5.01 | 4.1 |  | CCCCCCN(C)C(=O)C[C@H](CCCCN)NC(=O)[C@@H](Cc1c[nH]c2ccccc12)N(C)C(=O)C[C@H](Cc1ccccc1)NC(=O)CC [Compound 65, Propionyl-(S)-β^3-HPhe-(R)—N-Me-Trp-(S)-β^3-HLys-methyl-hexyl-amide] |  |  |  | 
35 | 129 (≈ 200 µM) | 129 (≈ 200 µM) | highest solubility values | 5.01 | 3.98 | 12.6 | 3.3 |  | CCCCCNC(=O)C[C@H](CCCCN)NC(=O)[C@@H](Cc1c[nH]c2ccccc12)N(C)C(=O)C[C@H](Cc1ccccc1)NC(=O)CC [Compound 70, Propionyl-(S)-β^3-HPhe-(R)—N-Me-Trp-(S)-β^3-HLys-pentyl-amide] |  |  |  | 
1200 | 35.7 (≈ 49.9 µM) | 14.3 (≈ 20 µM) |  | 0.1 |  |  | 3.9 |  | C[C@H]1OC(=O)C[C@H]1NC(=O)C[C@H](CCCCN)NC(=O)[C@@H](Cc1c[nH]c2ccccc12)NC(=O)C[C@H](Cc1ccccc1)NC(=O)C1CCCCC1 [Compound 5, Cyclohexanoyl-(S)-β^3-HPhe-(R)-Trp-(S)-β^3-HLys-(R)-4-amino-(R)-5-methyl-dihydro-furan-2-one] |  |  |  | 
708 to 2950 | 13.2 (≈ 20 µM) | 13.2 (≈ 20 µM) |  | 0.1 |  |  | 3.3 |  | CC(=O)N[C@H](CC(=O)N[C@H](Cc1cn(C)c2ccccc12)C(=O)N[C@@H](CCCCN)CC(=O)N[C@@H]1CC(=O)O[C@@H]1C)Cc1ccccc1 [Compound 21, Ac—(S)-β^3-HPhe-(R)-1-Me-Trp-(S)-β^3-HLys-(R)-4-amino-(R)-5-methyl-dihydro-furan-2-one] |  |  |  | 
708 | 15 (≈ 20 µM) | 15 (≈ 20 µM) |  | 0.1 |  |  | 3.7 |  | C[C@H]1OC(=O)C[C@H]1NC(=O)C[C@H](CCCCN)NC(=O)[C@@H](Cc1cn(C)c2ccccc12)NC(=O)C[C@H](Cc1ccccc1)NC(=O)CCc1ccccc1 [Compound 19, Dihydrocinnemoyl-(S)-β^3-HPhe-(R)-1-Me-Trp-(S)-β^3-HLys-(R)-4-amino-(R)-5-methyl-dihydro-furan-2-one] |  |  |  | 
2950 | 15.6 (≈ 20 µM) | 15.6 (≈ 20 µM) |  | 0.1 |  |  | 2.9 |  | C[C@H]1OC(=O)C[C@H]1NC(=O)C[C@H](CCCCN)NC(=O)[C@@H](Cc1cn(C)c2ccccc12)NC(=O)C[C@H](Cc1ccccc1)NC(=O)C12CC3CC(CC(C3)C1)C2 [Compound 20, Adamantoyl-(S)-β^3-HPhe-(R)-1-Me-Trp-(S)-β^3-HLys-(R)-4-amino-(R)-5-methyl-dihydro-furan-2-one] |  |  |  | 
6170 | 78.4 (≈ 100 µM) | 15.7 (≈ 20 µM) |  | 0.1 |  |  | 3.2 |  | C[C@@H](O)[C@@H](CC(N)=O)NC(=O)C[C@H](CCCCN)NC(=O)[C@@H](Cc1c[nH]c2ccccc12)NC(=O)C[C@H](Cc1ccccc1)NC(=O)C12CC3CC(CC(C3)C1)C2 [Compound 18, Adamantoyl-(S)-β^3-HPhe-(R)-Trp-(S)-β^3-HLys-(R), (R)—HThr-NH2] |  |  |  | 
417 | 70.7 (≈ 100 µM) | 14.1 (≈ 19.9 µM) |  | 0.1 |  |  | 4 |  | NCCCC[C@@H](CC(=O)NC1CCCC1)NC(=O)[C@@H](Cc1c[nH]c2ccccc12)NC(=O)C[C@H](Cc1ccccc1)NC(=O)CCc1ccccc1 [Compound 32, Dihydrocinnemoyl-(S)-β^3-HPhe-(R)-Trp-(S)-β^3-HLys-cyclopentyl-amide] |  |  |  | 
7 | 129 (≈ 200 µM) | 129 (≈ 200 µM) | highest solubility values | 3.16 | 1.58 | 3.98 | 3.4 |  | CCCCCN(C)C(=O)C[C@H](CCCCN)NC(=O)[C@@H](Cc1c[nH]c2ccccc12)NC(=O)C[C@H](Cc1ccccc1)NC(=O)CC [Compound 48] |  |  |  | 
 | 129 (≈ 200 µM) | 129 (≈ 200 µM) |  | 1 |  |  | 3.3 | lower binding affinities | CCC(=O)N(C)[C@H](CC(=O)N[C@H](Cc1c[nH]c2ccccc12)C(=O)N[C@@H](CCCCN)CC(=O)NC1CCCC1)Cc1ccccc1 [Compound 46, Propionyl-N-Me-(S)-β^3-HPhe-(R)-Trp-(S)-β^3-HLys-cyclopentyl-amide] |  |  |  | 
 | 14.9 (≈ 20 µM) | 14.9 (≈ 20 µM) |  | 0.1 |  |  | 3.9 |  | CCCCCCCCC(=O)N[C@H](CC(=O)N[C@H](Cc1c[nH]c2ccccc12)C(=O)N[C@@H](CCCCN)CC(=O)N[C@@H]1CC(=O)O[C@@H]1C)Cc1ccccc1 [Compound 11] |  |  |  | 
 | 60.5 (≈ 100 µM) | 60.5 (≈ 100 µM) |  |  |  | 3.16 | 3.5 |  | C[C@H]1OC(=O)C[C@H]1NC(=O)C[C@H](CCCCN)NC(=O)[C@@H](Cc1c[nH]c2ccccc12)NC(=O)C[C@@H](N)Cc1ccccc1 [Compound 28, (S)-β^3-HPhe-(R)-Trp-(S)-β^3-HLys-(R)-4-amino-(R)-5-methyl-dihydro-furan-2-one] |  |  |  | 
 | 153 (≈ 200 µM) | 76.7 (≈ 100 µM) | good water solubility | 3.16 |  | 10 | 2.8 |  | C[C@H]1OC(=O)C[C@H]1NC(=O)C[C@H](CCCCN)NC(=O)[C@@H](Cc1c[nH]c2ccccc12)NC(=O)C[C@H](Cc1ccccc1)NC(=O)C12CC3CC(CC(C3)C1)C2 [Compound 13, Adamantoyl-(S)-β^3-HPhe-(R)-Trp-(S)-β^3-HLys-(R)-4-amino-(R)-5-methyl-dihydro-furan-2-one] |  |  |  | 
 | 147 (≈ 200 µM) | 73.7 (≈ 100 µM) |  | 5.01 | 6.31 | 1.26 | 5.2 |  | NCCCC[C@@H](CC(=O)NC1CCCC1)NC(=O)[C@@H](Cc1c[nH]c2ccccc12)NC(=O)C[C@H](Cc1ccccc1)NC(=O)C12CC3CC(CC(C3)C1)C2 [Compound 34, Adamantoyl-(S)-β^3-HPhe-(R)-Trp-(S)-β^3-HLys-cyclopentyl-amide] |  |  |  | 
 | 15.2 (≈ 19.9 µM) | 15.2 (≈ 19.9 µM) |  | 12.6 | 2.51 |  | 4.2 |  | CCCCCCCCC(=O)N[C@H](CC(=O)N[C@H](Cc1c[nH]c2ccccc12)C(=O)N[C@@H](CCCCN)CC(=O)N[C@H](CC(N)=O)[C@@H](C)O)Cc1ccccc1 [Compound 17, Nonanoyl-(S)-β^3-HPhe-(R)-Trp-(S)-β^3-HLys-(R), (R)—HThr-NH2] |  |  |  | 
 | 66.1 (≈ 100 µM) | 13.2 (≈ 20 µM) |  | 0.1 |  |  | 3.3 |  | CC(=O)N[C@H](CC(=O)N(C)[C@H](Cc1c[nH]c2ccccc12)C(=O)N[C@@H](CCCCN)CC(=O)N[C@@H]1CC(=O)O[C@@H]1C)Cc1ccccc1 [Compound 40, Ac—(S)-β^3-HPhe-(R)—N-Me-Trp-(S)-β^3-HLys-(R)-4-amino-(R)-5-methyl-dihydro-furan-2-one] |  |  |  | 
62 |  |  |  |  |  |  |  |  | CC(=O)N[C@H](CC(=O)N[C@H](Cc1c[nH]c2ccccc12)C(=O)N[C@@H](CCCCN)CC(=O)NC1CCCC1)Cc1ccccc1 [Compound 30] |  |  |  | 
 |  |  |  |  |  |  |  |  | C[C@@H](O)[C@@H](CC(N)=O)NC(=O)C[C@H](CCCCN)NC(=O)[C@@H](Cc1c[nH]c2ccccc12)NC(=O)C[C@H](Cc1ccccc1)NC(=O)c1ccccc1 [Compound 14, Benzoyl-(S)-β^3-HPhe-(R)-Trp-(S)-β^3-HLys-(R), (R)—HThr-NH2] | 145 (≈ 200 µM) | 14.5 (≈ 20 µM) | 0.1 | 2.6
 | 124 (≈ 200 µM) | 30.9 (≈ 49.9 µM) |  | 0.1 |  |  | 3.2 |  | CN[C@H](CC(=O)N[C@H](Cc1c[nH]c2ccccc12)C(=O)N[C@@H](CCCCN)CC(=O)N[C@@H]1CC(=O)O[C@@H]1C)Cc1ccccc1 [Compound 38, N-Me-(S)-β^3-HPhe-(R)-Trp-(S)-β^3-HLys-(R)-4-amino-(R)-5-methyl-dihydro-furan-2-one] |  |  |  | 

SMILES | Kd (hsst4 receptor) [nM] | solubility [1, 4] [µg/mL] | solubility [1, 5] [µg/mL] | water solubility (in words) [1] | Papp [2, 6] [×10⁻⁶ cm/s] | Papp [2, 7] [×10⁻⁶ cm/s] | Papp [2, 8] [×10⁻⁶ cm/s] | logP [3, 9] | binding affinity to hsst4 (in words) (hsst4 receptor) | solubility ([1]; pH 1.0, read-out: HT-Solubility pH 1.0) [µg/mL] | solubility ([1]; pH 6.8, read-out: HT-Solubility pH 6.8) [µg/mL] | Papp ([2]; pH 4.0, read-out: HT-Permeability logPe pH 4.0 (converted)) [×10⁻⁶ cm/s] | logP ([3]; octanol/water; read-out: HT LogP ohw)
CC(=O)N[C@H](CC(=O)N[C@H](Cc1c[nH]c2ccccc12)C(=O)N[C@@H](CCCCN)CC(=O)N[C@H](CC(=O)N(C)CCc1ccccc1)C(C)C)Cc1ccccc1 [Compound 25, Ac—(S)-β^3-HPhe-(R)-Trp-(S)-β^3-HLys-(R)-β^3-Leu-methyl-phenethyl-amide] | 115 | 78 (≈ 100 µM) | 15.6 (≈ 20 µM) |  | 0.1 |  |  | 3.3 |  |  |  |  | 
